# Activity calls are given as the source filed them. The rule behind the calls is not given here.
# Tested on: GENE-TOX genotoxicity assays, various organisms and cells
# Assay: GENE-TOX mutagenicity studies
# Conditions: for call: Assay Type: In vivo carcinogenicity studies
# [1] = Species/Cell Type: Nonhuman, Assay Code: CCG+L, Evaluation Type: Evaluation A (Pre-1980)
# [2] = Species/Cell Type: Bacillus subtilis (H17 vs M45), Assay Type: Rec-assay, spot test, DNA effects (bacterial DNA repair), Assay Code: REW-, Evaluation Type: Evaluation A (Pre-1980)
# [3] = Species/Cell Type: Mammalian polychromatic erythrocytes, Assay Type: Micronucleus test, chromosome aberrations, Assay Code: MNT+, Evaluation Type: Evaluation A (Pre-1980)
# [4] = Species/Cell Type: Salmonella typhimurium (one or more of the five standard strains: TA98, TA100, TA1535, TA1537, and TA1538), Assay Type: Histidine reverse gene mutation, Ames assay, Assay Code: SAL+, Evaluation Type: Evaluation A (Pre-1980)
# [5] = Species/Cell Type: Salmonella typhimurium (one or more of the five standard strains: TA98, TA100, TA1535, TA1537, and TA1538), Assay Type: Histidine reverse gene mutation, Ames assay, Assay Code: SALT, Evaluation Type: Evaluation A (Pre-1980)
# [6] = Species/Cell Type: Nonhuman, Assay Code: CCG+, Evaluation Type: Evaluation A (Pre-1980)
# [7] = Species/Cell Type: Salmonella typhimurium (one or more of the five standard strains: TA98, TA100, TA1535, TA1537, and TA1538), Assay Type: Histidine reverse gene mutation, Ames assay, Assay Code: SAL+*, Activation: With metabolic activation, Evaluation Type: Evaluation A (Pre-1980)
# [8] = Species/Cell Type: Nonhuman, Assay Type: Sister-chromatid exchange (SCE) in vitro, Assay Code: SC2+D, Dose Response: With dose response, Evaluation Type: Evaluation B (Post-1980)
# [9] = Species/Cell Type: Human lymphocytes, Assay Type: Sister-chromatid exchange (SCE) in vitro, Assay Code: SCL+, Evaluation Type: Evaluation B (Post-1980)
# [10] = Species/Cell Type: Human, Assay Type: Sister-chromatid exchange (SCE) in vitro, Assay Code: SC1+, Evaluation Type: Evaluation B (Post-1980)
smiles,measurement,setting,value
Nc1nc(NO)c2[nH]cnc2n1,mutagenic call,"Species/Cell Type: Escherichia coli WP2, Assay Type: Tryptophan reverse gene mutation, Assay Code: WP2T, Evaluation Type: Evaluation A (Pre-1980)",no conclusion
same,mutagenic call,"Species/Cell Type: Escherichia coli WP2 UVRA, Assay Type: Tryptophan reverse gene mutation, Assay Code: WPUT, Evaluation Type: Evaluation A (Pre-1980)",no conclusion
same,mutagenic call,"Species/Cell Type: Neurospora crassa, Assay Type: Forward gene mutation, Assay Code: NEF+, Evaluation Type: Evaluation A (Pre-1980)",active; positive
CCNC(=S)NCC,call,[1],active; positive
same,mutagenic call,"Species/Cell Type: Syrian hamster embryo (SA7/SHE) cells, Assay Type: Cell transformation, viral enhanced, Assay Code: CT7-, Evaluation Type: Evaluation A (Pre-1980)",inactive; negative
CNc1ccc(C(=C2C=CC(=[N+](C)C)C=C2)c2ccc(N(C)C)cc2)cc1,mutagenic call,"Species/Cell Type: Saccharomyces cerevisiae, Assay Type: Reverse gene mutation, Assay Code: YER-, Evaluation Type: Evaluation A (Pre-1980)",inactive; negative
O=C1C=CCO1,mutagenic call,[2],inactive; negative
CCN(CC)CC(O)CNc1c2ccc(Cl)cc2nc2ccc(OC)cc12 (stereo unspecified),mutagenic call,"Species/Cell Type: Mammalian polychromatic erythrocytes, Assay Type: Micronucleus test, chromosome aberrations, Assay Code: MNT+U, Dose Response: Unconfirmed positive response, Evaluation Type: Evaluation A (Pre-1980)",active; positive
CN(C)C(=S)SSC(=S)N(C)C,mutagenic call,"Species/Cell Type: Bacillus subtilis (H17 vs M45), Assay Type: Rec-assay, spot test, DNA effects (bacterial DNA repair), Assay Code: REW+, Evaluation Type: Evaluation A (Pre-1980)",active; positive
same,mutagenic call,[3],active; positive
CCN(CC)CCn1c2ccc(CO)c3c2c([n+]1[O-])-c1ccc(Cl)cc1S3,mutagenic call,[4],active; positive
same,mutagenic call,[5],no conclusion
same,mutagenic call,"Species/Cell Type: Salmonella typhimurium, Assay Type: Forward and reverse gene mutation, body fluid assay, Assay Code: BFU+, Evaluation Type: Evaluation A (Pre-1980)",active; positive
same,mutagenic call,"Species/Cell Type: Salmonella typhimurium, Assay Type: Forward and reverse gene mutation, host-mediated assay, Assay Code: HMA+, Evaluation Type: Evaluation A (Pre-1980)",active; positive
CC(=O)N(O)c1ccc2c(ccc3ccccc32)c1,mutagenic call,"Species/Cell Type: Human diploid fibroblasts, Assay Type: Unscheduled DNA synthesis (UDS) in vitro, DNA effects, Assay Code: UDH+, Evaluation Type: Evaluation A (Pre-1980)",active; positive
same,call,[1],active; positive
COc1ccc(C(=O)/C(Br)=C\C(=O)O)cc1,mutagenic call,[3],active; positive
same,call,[1],active; positive
O=C1CCCCCN1,mutagenic call,"Species/Cell Type: Chinese hamster ovary (CHO) cells, Assay Type: Forward gene mutation at the HPRT locus, Assay Code: CHO-, Evaluation Type: Evaluation B (Post-1980)",inactive; negative
same,call,"Species/Cell Type: Nonhuman, Assay Code: CCG-, Evaluation Type: Evaluation A (Pre-1980)",inactive; negative
[Cl][Mo]([Cl])([Cl])([Cl])[Cl],mutagenic call,[2],inactive; negative
c1ccc2c(c1)cc1ccc3cc4ccccc4c4ccc2c1c34,call,[6],active; positive
same,mutagenic call,[7],active; positive
Cc1ccc(S(=O)(=O)NC(=O)N[C@H]2[C@H]3CC[C@@](C)([C@H]2O)C3(C)C)cc1,mutagenic call,"Species/Cell Type: Nonhuman, Assay Type: Sister-chromatid exchange (SCE) in vivo, Assay Code: SC3T, Evaluation Type: Evaluation B (Post-1980)",no conclusion
c1ccc2c(c1)ccc1[nH]c3ccc4ccccc4c3c12,call,[6],active; positive
Cc1c2ccccc2cc2c3c(ccc12)C(O)C(O)C=C3 (stereo unspecified),mutagenic call,"Species/Cell Type: Mouse prostate cells, Assay Type: Cell transformation, Assay Code: CTM+, Evaluation Type: Evaluation A (Pre-1980)",active; positive
same,mutagenic call,"Species/Cell Type: Nonhuman, Assay Type: Sister-chromatid exchange (SCE) in vitro, Assay Code: SC2+D, Dose Response: With dose response, Evaluation Type: Evaluation A (Pre-1980)",active; positive
same,mutagenic call,[7],active; positive
Cc1c2ccccc2c(C)c2ccccc12,mutagenic call,"Species/Cell Type: Mammalian polychromatic erythrocytes, Assay Type: Micronucleus test, chromosome aberrations, Assay Code: MNTT, Evaluation Type: Evaluation A (Pre-1980)",no conclusion
same,mutagenic call,"Species/Cell Type: Mouse, Sex: Male, Assay Type: Sperm morphology, Assay Code: SPI-, Evaluation Type: Evaluation A (Pre-1980)",inactive; negative
same,mutagenic call,"Species/Cell Type: Nonhuman, Assay Type: Sister-chromatid exchange (SCE) in vitro, Assay Code: SC2+, Evaluation Type: Evaluation B (Post-1980)",active; positive
same,mutagenic call,[7],active; positive
Cl/C=C(\Cl)C(Cl)Cl,mutagenic call,[8],active; positive
O=C1CN(/N=C/c2ccc([N+](=O)[O-])o2)C(=O)N1CO,mutagenic call,"Species/Cell Type: Human, Sex: Male, Assay Type: Sperm morphology, Assay Code: SPHT, Evaluation Type: Evaluation A (Pre-1980)",no conclusion
Nc1ccc(/C=C/c2ccc([N+](=O)[O-])o2)nn1,mutagenic call,"Species/Cell Type: Glycine max (soybean), Assay Type: Gene mutation, Assay Code: GLM+, Evaluation Type: Evaluation A (Pre-1980)",active; positive
same,mutagenic call,[9],active; positive
same,mutagenic call,"Species/Cell Type: Human lymphocytes, Assay Type: Sister-chromatid exchange (SCE) in vitro, Assay Code: SCL+D, Dose Response: With dose response, Evaluation Type: Evaluation A (Pre-1980)",active; positive
same,mutagenic call,[10],active; positive
same,mutagenic call,"Species/Cell Type: Human, Assay Type: Sister-chromatid exchange (SCE) in vitro, Assay Code: SC1+D, Dose Response: With dose response, Evaluation Type: Evaluation A (Pre-1980)",active; positive
same,mutagenic call,"Species/Cell Type: Saccharomyces cerevisiae, Assay Type: Forward and reverse gene mutation, mitotic recombination and gene conversion, DNA effects, body fluid assay, Assay Code: BFC+, Evaluation Type: Evaluation A (Pre-1980)",active; positive
same,mutagenic call,"Species/Cell Type: Saccharomyces cerevisiae, Assay Type: Forward and reverse gene mutation, mitotic recombination and gene conversion, host-mediated assay, Assay Code: HME-, Evaluation Type: Evaluation A (Pre-1980)",inactive; negative
same,mutagenic call,"Species/Cell Type: Saccharomyces cerevisiae, Assay Type: Mitotic recombination or gene conversion, Assay Code: YEC+, Evaluation Type: Evaluation A (Pre-1980)",active; positive
same,mutagenic call,"Species/Cell Type: Saccharomyces cerevisiae, Assay Type: Mitotic recombination or gene conversion, Assay Code: YEH+, Evaluation Type: Evaluation A (Pre-1980)",active; positive
Cc1cc(=O)[nH]c(=S)[nH]1,call,[6],active; positive
COC(=O)[C@H](N)Cc1cnc[nH]1,mutagenic call,"Species/Cell Type: Drosophila melanogaster, Assay Type: Sex-linked recessive lethal gene mutation, Assay Code: SRL-, Evaluation Type: Evaluation A (Pre-1980)",inactive; negative
Cc1c2ccccc2c(CO)c2ccc3c(c12)C=C[C@@H](O)[C@@H]3O,call,[1],active; positive
C[C@@]1(CO)[C@H](O)CC[C@@]2(C)[C@H]1CC[C@H]1C[C@@H]3C[C@@]12CC[C@]3(O)CO,mutagenic call,[9],active; positive
same,mutagenic call,[10],active; positive
same,mutagenic call,[8],active; positive
O=c1[nH]c(=O)n([C@H]2C[C@H](O)[C@@H](CO)O2)cc1Cl,mutagenic call,"Species/Cell Type: Chinese hamster ovary (CHO) cells, Assay Type: Forward gene mutation at the HPRT locus, Assay Code: CHO+, Evaluation Type: Evaluation B (Post-1980)",active; positive
same,mutagenic call,[8],active; positive
CC[C@H](C)[C@H](NC(=O)[C@@H](NC(=O)N[C@@H](Cc1ccccc1)C(=O)O)C1CCN=C(N)N1)C(=O)N[C@H](C=O)Cc1ccccc1 (stereo partly specified) (tested in a mixture with another compound),mutagenic call,"Species/Cell Type: Human, Assay Type: Sister-chromatid exchange (SCE) in vitro, Assay Code: SC1T, Evaluation Type: Evaluation B (Post-1980)",no conclusion
Cc1cc2c3c(ccc2c2ccccc12)C(=O)CC3,mutagenic call,[5],no conclusion
[Cu+].[Cu].[SH-],mutagenic call,"Species/Cell Type: Syrian hamster embryo (SA7/SHE) cells, Assay Type: Cell transformation, viral enhanced, Assay Code: CT7+, Evaluation Type: Evaluation A (Pre-1980)",active; positive
CC(C)=CC1C(C(=O)O)C1(C)C (stereo unspecified),mutagenic call,"Species/Cell Type: Human diploid fibroblasts, Assay Type: Unscheduled DNA synthesis (UDS) in vitro, DNA effects, Assay Code: UDH-, Evaluation Type: Evaluation A (Pre-1980)",inactive; negative
same,mutagenic call,"Species/Cell Type: Saccharomyces cerevisiae, Assay Type: Mitotic recombination or gene conversion, Assay Code: YEH-, Evaluation Type: Evaluation A (Pre-1980)",inactive; negative
O=[N+]([O-])c1ccc2[nH]ccc2c1,mutagenic call,[4],active; positive
[C-]#[N+]C(=C\c1ccc(O)cc1)/C(=C/c1ccc(O)cc1)[N+]#[C-],mutagenic call,"Species/Cell Type: Bacillus subtilis (H17 vs M45), Assay Type: Rec-assay, spot test, DNA effects (bacterial DNA repair), Assay Code: REWT, Evaluation Type: Evaluation A (Pre-1980)",no conclusion
CC1=C(/C=C/C(C)=C/C=C/C(C)=C/COc2ccccc2)C(C)(C)CCC1,mutagenic call,"Species/Cell Type: Human, Assay Type: Sister-chromatid exchange (SCE) in vitro, Assay Code: SC1+D, Dose Response: With dose response, Evaluation Type: Evaluation B (Post-1980)",active; positive
CCn1c(=O)c2c(ncn2CC)n(CC)c1=O,mutagenic call,"Species/Cell Type: Allium cepa, Assay Type: Chromosome aberrations, Assay Code: ALC-, Evaluation Type: Evaluation A (Pre-1980)",inactive; negative
O=C(Nc1ccc(Br)cc1)c1cc(Br)cc(Br)c1O,mutagenic call,"Species/Cell Type: Mammalian polychromatic erythrocytes, Assay Type: Micronucleus test, chromosome aberrations, Assay Code: MNTT, Evaluation Type: Evaluation B (Post-1980)",no conclusion
